Entries after “also recorded” stand apart in the source; their conditions may differ. Read-outs that look alike come from different tables or passages of the source.
Columns and labels:
[1] = tested on: purified trehalase; assay: In vitro colorimetric trehalase assay (glucose generation, 340 nm); type: biochemical; conditions: in the presence of miglustat; 340 nm absorbance
Procedure: To this aim, an in vitro colorimetric assay was performed to measure the rate of generation of glucose, the product of trehalose hydrolysis by trehalase. In the absence of miglustat, trehalose was rapidly hydrolysed by purified trehalase, and the glucose produced could be quantified at 340 nm absorbance. In the test conditions, the amounts of glucose detected increased over time to reach a plateau in […].

[2] = tested on: Cln3^Δex7-8 mice; assay: Neuronal cell death, cleaved caspase-3 immunohistology in brain sections; type: in vivo, mouse; conditions: for cell death (cleaved CAS-3) in the VPM/VPL region: 12 months of age, oral, 2% Trehalose in drinking water, Miglustat in chow (FIG. 1E)
Procedure: (§1) Cln3^Δex7-8 mice were obtained from the Jackson Laboratory. Control (C57BL/6J) and Cln3^Δex7-8 mice were housed 3-4 per cage in a room with a 12-h light/12-h dark cycle. Food and water were provided ad libitum. All mice used in this study were analyzed at 8 and 12 months of age and were littermates produced by crossing heterozygous Cln3^Δex7-8 mice. Only males were used for this analysis. Investigators were blinded when analyzing the data, and no randomization was necessary.
(§2) For oral administration, Trehalose was dissolved in drinking water to a final concentration of 2% and changed twice a week. Trehalose-containing water was given to Cln3^Δex7-8 mice and WT mice by spontaneous oral administration starting at 21 days of age and continuing until the day the mice were sacrificed for neuropathology studies.
(§3) Miglustat was administered in mixture with the food pellet starting at 21 days of age and continuing until the day the mice were sacrificed for neuropathology studies. Miglustat food was prepared by TestDiet using the 5V5R rodent diet (LabDiet). Two concentrations were used: 1.2 g/Kg chow (indicated as “low concentration”) and 7.2 g/Kg chow (indicated as “high concentration”) and two separate groups of Cln3^Δex7-8 mice were fed with either diet. One additional group of Cln3^Δex7-8 l mice was fed with a combination of the low-concentration Miglustat food and 2% Trehalose water.
(§4) Twelve-month-old homozygous Cln3^Δex7-8 mice and age-matched controls (WT mice) were anaesthetized with isoflurane and transcardially perfused with PBS followed by 4% buffered paraformaldehyde in 0.1 M sodium phosphate buffer, pH 7.4. Brains were subsequently removed and postfixed overnight. Before sectioning, the brains were cryoprotected in a solution containing 30% sucrose in Tris-buffered saline (TBS: 50 mM Tris, pH 7.6). Consecutive 40 μm floating coronal sections were collected in 96-well plates. Series of sections were then stained with primary antisera against CD68 (AbD
(§5) Serotec, Cat. No. MCA1957), GFAP (DAKO, Cat. No. Z0334), Subunit C of mitochondrial ATP synthase (SCMAS; Abcam, Cat. No. ab181243), or cleaved caspase 3 (Asp175) (Cell Signaling, Cat. No. 9661S) followed by either rabbit anti-rat (VectorLab) or swine anti-rabbit (DAKO) secondary antibodies, and immunoreactivity detected with Vectastain ABC (avidin-biotin) kit (Vector) and diaminobenzidine as a chromogen.
(§6) Non-overlapping images were captured, on three consecutive sections, through each region of interest. All RGB images were captured via a live video camera (JVC, 3CCD, KY-F55B), mounted onto a Zeiss Axioplan microscope using a x 40 objective and saved as JPEGs. All parameters including lamp intensity, video camera set-up and calibration were maintained constant throughout image capturing. For quantification of storage and inflammation, images were analyzed using ImageJ analysis software (NIH), using an appropriate threshold that selected the foreground immunoreactivity above background. This threshold was then applied as a constant to all subsequent images analyzed per batch of animals and reagent used to determine the specific area of immunoreactivity for each antigen in each region. Data were plotted graphically as the mean percentage area of immunoreactivity per field ±s.e.m. for each region. For quantification of cell death, images were analyzed manually and scored for the presence of apoptotic nuclei. Data were plotted graphically as the mean number of apoptotic cells per field ±s.e.m. for each region. […]

[3] = tested on: Cln3^Δex7-8 mice; assay: Microglial activation, CD68 immunohistochemistry in brain sections; type: in vivo, mouse
Procedure: as §1, §2, §3, §4, §5
as §6, with “Data were plotted graphically as the mean percentage area of immunoreactivity per field ±s.e.m. for each region.” left out, “nuclei.” for “nuclei. Data were plotted graphically as the mean number of apoptotic cells per field ±s.e.m. for each region.”
(S1BF), the primary visual (V1) cortex, and the dorsolateral geniculate (DLG) (Pontikis et al., 2005). To quantify microglial activation, antibodies against the microglial marker CD68 were used. […]

[4] = tested on: Cln3^Δex7-8 mice; assay: Astrocytosis, GFAP immunohistochemistry in brain sections; type: in vivo, mouse
Procedure: as §1, §2, §3, §4, §5
Non-overlapping images were captured, on three consecutive sections, through each region of interest. All RGB images were captured via a live video camera (JVC, 3CCD, KY-F55B), mounted onto a Zeiss Axioplan microscope using a x 40 objective and saved as JPEGs. All parameters including lamp intensity, video camera set-up and calibration were maintained constant throughout image capturing. For quantification of storage and inflammation, images were analyzed using ImageJ analysis software (NIH), using an appropriate threshold that selected the foreground immunoreactivity above background. This threshold was then applied as a constant to all subsequent images analyzed per batch of animals and reagent used to determine the specific area of immunoreactivity for each antigen in each region. Data were plotted graphically as the mean percentage area of immunoreactivity per field ±s.e.m. for each region. For quantification of cell death, images were analyzed manually and scored for the presence of apoptotic nuclei. Data were plotted graphically as the mean number of apoptotic cells per field ±s.e.m. for each region. All analyses were performed blind to genotype and treatment.
[…] was also quantified by performing immunohistochemistry staining of brain sections of all test and control mice using anti-GFAP antibodies.

[5] = tested on: Cln3^Δex7-8 mice; assay: Lysosomal storage in cerebellum (SCMAS staining); type: in vivo, mouse; conditions: 12 months of age
Procedure: as §1
For oral administration, Trehalose was dissolved in drinking water to a final concentration of 2% and changed twice a week. […]
as §5
Non-overlapping images were captured, on three consecutive sections, through each region of interest. […] For quantification of storage and inflammation, images were analyzed using ImageJ analysis software (NIH), using an appropriate threshold that selected the foreground immunoreactivity above background. […]

[6] = tested on: CLN3 1kb mutant human fibroblasts; assay: Glycosphingolipid and lysosomal storage in CLN3 1 kb deletion mutant fibroblasts; type: cell-based
[7] = tested on: human CLN3 disease NPC derived cortical neurons; assay: Glycosphingolipid and lysosomal storage in CLN3 patient iPSC/NPC derived cortical neurons; type: cell-based
[8] = tested on: cln3 morphant zebrafish embryos; assay: Glycosphingolipid/SCMAS storage and eye phenotype in cln3 morphant zebrafish embryos; type: in vivo; conditions: miglustat 300 μM from 4 hpf for 88 h
[9] = cited from earlier work
[10] = Miglustat 50 μM during the final week of differentiation

CCCCN1C[C@H](O)[C@@H](O)[C@H](O)[C@H]1CO [Miglustat, (2R,3R,4R,5S)-1-butyl-2-(hydroxymethyl)piperidine-3,4,5-triol]
trehalase-mediated hydrolysis of trehalose to glucose (glucose generated) [1]: only a minimal amount of glucose was generated
cell death (cleaved CAS-3) in the VPM/VPL region [2]: largely suppressed
cell death (cleaved CAS-3) in the VPM/VPL region ([2]; listed as miglustat): prevented
programmed cell death (cleaved caspase-3 reactive cells) ([2]; regions analyzed: VPM/VPL, dLG, S1BF, V1 (FIGS. 1A-D), oral treatment): effective in abating programmed cell death
microglial activation (CD68) in the VPM/VPL ([3]; FIG. 2A): potently prevented microglial activation; also recorded: undistinguishable from WT mice
microglial activation (CD68) in the DLG ([3]; FIG. 2B): significantly decreased microglial activation
CD68 staining in the VPM/VPL ([3]; low concentrations of Miglustat (1.2 g/Kg chow), FIG. 2E): largely reduce CD68 staining
CD68 staining in the cerebellum ([3]; low concentrations of Miglustat, not shown): partially or largely reduce CD68 staining
astroglial activation (GFAP staining) in the VPM/VPL region ([4]; 12 months of age, oral, Miglustat even at low doses (FIG. 3E)): largely suppressed
astrocytosis (GFAP immunoreactivity) in the VPM/VPL ([4]; FIG. 3A): undistinguishable from that of WT mice
astrocytosis (GFAP immunoreactivity) in the DLG ([4]; FIG. 3B): prevented astrocytosis
astrocytosis (GFAP) in the S1BF ([4]; FIG. 3C): reduction in astrocytosis, although this did not reach statistical significance
increased storage in the cerebellum (SCMAS staining) [5]: no consistent effects
accumulation of SCMAS ([6]; 50 μM miglustat): significantly reduced
localisation of CtxB (ganglioside GM1) ([6]; 50 μM miglustat): restores sub-plasma membrane localisation
lysosomal inclusions by EM ([6]; 50 μM miglustat): notable absence of the dark membranous whorl-like inclusions
peak CtxB fluorescence (confocal line scans) ([6]; 50 μM miglustat): clearly reduces the peak CtxB fluorescence
swollen mitochondria with abnormal cristae (electron microscopy) ([6]; 50 μM miglustat): normalised
accumulating GSLs (ganglioside GM1 by CtxB, globosides Gb3/4 by SLxT) ([6]; 50 μM miglustat for 5 days): normalised; also recorded: significant reduction in the accumulating GSLs back to control levels
elevated lysosomal Ca2+ ([6]; 50 μM miglustat, ionomycin/GPN, Fura 2,AM): restored to healthy control levels
localisation of CtxB (ganglioside GM1) ([6]; 50 μM miglustat, listed as miglustat): normalisation in localisation of CtxB back to the plasma membrane
autophagy (CytoID) ([6]; 50 μM miglustat, live cells): normalisation in elevated autophagy
expansion of the lysosomal system (lysotracker staining) ([6]; 50 μM miglustat, live cells): normalisation in the visible expansion of the lysosomal system
excitotoxic glutamate induced Ca2+ signalling [7, 10]: normalisation of excitotoxic glutamate induced Ca^2+ signalling
expansion of the lysosomal and autophagic vacuole systems (lysotracker and cytoID staining) [7, 10]: reduction in expansion of the lysosomal and autophagic vacuole systems
lipid and protein storage levels (globoside, ganglioside GM1, SCMAS) [7, 10]: normalised; also recorded: reduced lipid and protein storage levels
lipid localisation [7, 10]: normalisation of lipid localisation
lysosomal Ca2+ content ([7]; Miglustat 50 μM, ionomycin/GPN, Fura 2,AM): normalisation of lysosomal Ca^2+ content
fluorescence intensity of glycolipids and of lipofuscin associated SCMAS storage [8]: normalised; also recorded: decrease, particularly in the brain, in fluorescence intensity
ganglioside GM1 storage within the brain (CtxB line scans) [8]: reduced; also recorded: normalised
retinal area [8]: restored to wild-type levels
Solubility in water ([9]; as a free base): (>1000 mg/mL as a free base).
Solubility in water [9]: Miglustat: Highly soluble in water
